Measurements taken from patent publication US20110280940A1, “Di-Vanilloyl And Tri-Vanilloyl Derivatives For Use In Anti-Cancer Therapy” (priority 2008, published 2011).
Where two headings read alike, the source gives them in different places.

Columns and labels:
VM21 melanoma cells = experiment: MTT colorimetric assay, overall cell growth, VM21; format: cell-based, human; details: MTT, 72 hours of incubation, read-out: In Vitro IC50 Growth Inhibitory Values, VM21
Text: (§1) The amount of formazan obtained at the end of the experiment, measured by means of a spectrophotometer, is directly proportional to the number of living cells. Optical density determination thus enabled a quantitative measurement of the effect of the investigated compounds as compared to the control condition (untreated cells) and/or to other reference compounds. Eleven human cancer cell lines and one mouse melanoma cell-line (B16F10) described in Table 2 were used in the following MTT tests. These cancer cell lines cover seven histological cancer types including prostate (PC3), glioma (Hs683, T98G, U373, melanoma (VM21, VM28), non-small-cell-lung (A549), breast (MCF-7), colon (LoVo) and oesophageal (OE21, OE33) cancers. […] Each cell line was seeded in its appropriate culture medium. The detailed experimental procedure was the following: after a 24-hour period of incubation at 37° C., the culture medium was replaced by 100 μl of fresh medium in which the tested compound was previously dissolved, at the following molar concentrations: 10^-8 […] and 10^-4 M. Each experiment was performed in sestuplicates (6 times). After 72 hours of incubation at 37° C. with (experimental conditions) or without (control condition) the compound to be tested, the medium was replaced by 100 μl MTT dissolved in RPMI (1640 without phenol red) at a concentration of 0.5 or 1 mg/ml. The micro-wells were subsequently incubated during 3 hours and a half at 37° C. and centrifuged at 1300 rpm during 10 minutes. MTT was removed and formazan crystals formed were dissolved in 100 μl DMSO. The micro-wells were shaken for 5 minutes and read on a spectrophotometer at wavelengths of 570 nm (maximal formazan absorbance). For each experimental condition, the mean optical density was calculated, allowing the determination of the percentage of remaining living cells in comparison to the control. […] The origin of all the cell lines we used, along with their biological characteristics, and the validation procedures of the MTT colorimetric assay as employed here are fully detailed in Van Quaquebeke et al., 2005, J Med Chem 48:849-856; […]

VM48 melanoma cells = experiment: MTT colorimetric assay, overall cell growth, VM48; format: cell-based, human; details: MTT, 72 hours of incubation, read-out: In Vitro IC50 Growth Inhibitory Values, VM48
[1] = test system: Eleven human cancer cell lines; experiment: MTT colorimetric assay, across the eleven human cancer cell lines; format: cell-based; details: mean ± SEM over the 11 human cancer cell lines, MTT, 72 hours; read-out: In Vitro IC50 Growth Inhibitory Values, m ± SEM
Text: as §1

U373-MG glioma cell line = experiment: Cellular imaging (quantitative videomicroscopy), global growth ratio, U373; format: cell-based; details: Homo sapiens, 50 μM, 72 h, read-out: Global Grow Ratio Treated/Ct (GGR T/Ct) determined by Video Quantitative microscopy, U373
Text: (§2) As the MTT test is based on the mitochondria functions, we also investigated the effects of the di- and tri-vanilloyl derivatives according to the invention on cell proliferation, migration and morphology by means of a cellular imaging approach (Debeir et al., Cytometry 60:29-40, 2004; Debeir et al., IEEE Trans Med Imaging 24:697-711, 2005) either in the human U373-MG glioma cell line, which is apoptosis-resistant but autophagy-sensitive (Lefranc F et al., Neurosurgery 2008) and in the human A549 non-small-cell-lung cancer cell line, which is apoptosis-resistant and autophagy-resistant (Mijatovic T et al., Neoplasia 2006, May; 8(5):402-12).
(§3) Investigations have also been performed in human normal fibroblasts (WS1 and WI38—see Tables 4 and 5). Cellular imaging relied on the use of computer-assisted phase-contrast microscopy making possible to film the behaviour of living cells in culture dishes for several days.
(§4) Cells were seeded in a 25-cm^2 flask at a low density, treated or not with the vanilloyl-esters invention (at a concentration of 50 μM) and filmed thereafter for a period of 72 h. The experiment was conducted in quadruplicates (in duplicates for DLT-95 compounds).
(§5) The behaviour of the cells, in terms of morphology, growth and death were thus investigated. The effect on the overall growth was measured by counting the number of cells on the first (0 h) and the last image (72 h) of each film. The global growth ratio (GGR) was then deduced by dividing the number of cells on the last image by the number of cells on the first image. The ratio GGRtreated cells/GGRcontrol cells, was further calculated thereby obtaining a value that describes the effect of compounds of the present invention on the overall cell growth. The methodology is fully described and validated in Debeir et al., 2008, Exp Cell Res 314:2985-2998 and Mathieu et al., 2009, J Cell Mol Med, Feb. 20, 2009.
(§6) Illustrative pictures (time=0 h and 72 h) of glioblastoma and normal fibroblast cell line left untreated or treated with poly-vanillic compounds according to the invention (50 μM) are provided in FIG. 1 (U373 glioblastoma) and FIG. 2 (normal fibroblasts). The GGR parameter analyses confirmed the marked impairment of cell growth in both cancer cell lines of the poly-vanillic compounds according to the invention (Table 5).

[2] = test system: A549 non-small-cell-lung cancer cell line; experiment: Cellular imaging (quantitative videomicroscopy), global growth ratio, A549; format: cell-based; details: Homo sapiens, 72 h, read-out: Global Grow Ratio Treated/Ct (GGR T/Ct) determined by Video Quantitative microscopy, A549
Text: as §2, §3, §4, §5, §6

U373 glioblastoma cells = experiment: MTT colorimetric assay, overall cell growth, U373; format: cell-based, human; details: 72 hours of incubation, read-out: In Vitro IC50 Growth Inhibitory Values, U373
Text: as §1

Hs683 glioma cells = experiment: MTT colorimetric assay, overall cell growth, Hs683; format: cell-based, human; details: read-out: In Vitro IC50 Growth Inhibitory Values, Hs683
Text: as §1

[3] = test system: A549 non-small-cell-lung cancer cells; experiment: MTT colorimetric assay, overall cell growth, A549; format: cell-based, human; details: read-out: In Vitro IC50 Growth Inhibitory Values, A549
Text: as §1

[4] = test system: PC-3 prostate cancer cells; experiment: MTT colorimetric assay, overall cell growth, PC-3; format: cell-based, human; details: 72 hours of incubation, read-out: In Vitro IC50 Growth Inhibitory Values, PC-3
Text: as §1

[5] = test system: MCF-7 breast cancer cells; experiment: MTT colorimetric assay, overall cell growth, MCF-7; format: cell-based, human; details: read-out: In Vitro IC50 Growth Inhibitory Values, MCF-7
Text: as §1

LoVo colon cancer cells = experiment: MTT colorimetric assay, overall cell growth, LoVo; format: cell-based, human; details: 72 hours of incubation, read-out: In Vitro IC50 Growth Inhibitory Values, LoVo
Text: as §1

T98G glioma cells = experiment: MTT colorimetric assay, overall cell growth, T98G; format: cell-based, human; details: 72 hours of incubation, read-out: In Vitro IC50 Growth Inhibitory Values, T98G
Text: as §1

[6] = test system: OE21 oesophageal cancer cells; experiment: MTT colorimetric assay, overall cell growth, OE21; format: cell-based, human; details: read-out: In Vitro IC50 Growth Inhibitory Values, OE21
Text: as §1

[7] = test system: OE33 oesophageal cancer cells; experiment: MTT colorimetric assay, overall cell growth, OE33; format: cell-based, human; details: read-out: In Vitro IC50 Growth Inhibitory Values, OE33
Text: as §1

[8] = test system: B16F10 melanoma cell-line; experiment: MTT colorimetric assay, overall cell growth, B16F10; format: cell-based, mouse; details: read-out: In Vitro IC50 Growth Inhibitory Values, B16F10
Text: as §1

[9] = Homo sapiens, Hs 683, 72 hours of incubation
[10] = Homo sapiens, A549, 72 hours of incubation
[11] = Homo sapiens, MCF7, 72 hours of incubation
[12] = Homo sapiens, OE21, 72 hours of incubation
[13] = Homo sapiens, OE33, 72 hours of incubation
[14] = Mus musculus, B16-F10, 72 hours of incubation

SMILES | IC50 (VM21 melanoma cells; Homo sapiens) [µM] | IC50 (VM48 melanoma cells; Homo sapiens) [µM] | IC50 [1] [µM] | activity at 50 µM (U373-MG glioma cell line) [%] | activity at 50 µM [2] [%] | IC50 ([4]; Homo sapiens) [µM] | IC50 (U373 glioblastoma cells) [µM] | IC50 (Hs683 glioma cells; 72 hours of incubation) [µM] | IC50 ([3]; 72 hours of incubation) [µM] | IC50 [4] [µM] | IC50 ([5]; 72 hours of incubation) [µM] | IC50 (LoVo colon cancer cells) [µM] | IC50 (T98G glioma cells) [µM] | IC50 ([6]; 72 hours of incubation) [µM] | IC50 ([7]; 72 hours of incubation) [µM] | IC50 (VM21 melanoma cells) [µM] | IC50 (VM48 melanoma cells) [µM] | IC50 ([8]; 72 hours of incubation) [µM] | other results
COc1cc(C(=O)OCCCOC(=O)c2ccc(O)c(OC)c2)ccc1O [DLT2, Propane-1,3-diyl bis-(4-hydroxy-3-methoxybenzoate)] | 72 | 68 | > 100 | 40 | 110 | – | – | – | – | – | – | – | – | – | – | – | – | – | –
COc1cc(C(=O)OCCCCOC(=O)c2ccc(O)c(OC)c2)ccc1O [DLT10, Butane-1,4-diyl bis-(4-hydroxy-3-methoxybenzoate)] | 60 | 52 | > 100 | 50 | 20 | – | – | – | – | – | – | – | – | – | – | – | – | – | –
COc1cc(C(=O)OCCCCCCCCOC(=O)c2ccc(O)c(OC)c2)ccc1O [DLT13, Octane-1,8-diyl bis-(4-hydroxy-3-methoxybenzoate)] | 28 | 26 | 42 | 20 | 20 | – | – | – | – | – | – | – | – | – | – | – | – | – | –
O=C(OCCOC(=O)c1cc(O)c(O)c(O)c1)c1cc(O)c(O)c(O)c1 [DLT31, Ethane-1,2-diyl bis-(3,4,5-trihydroxybenzoate)] | 37 | 35 | 30 ± 3 | – | – | 30 | – | – | – | – | – | – | – | – | – | – | – | – | IC50 (U373 glioblastoma cells; Homo sapiens, U373 MG): 28 µM; IC50 (Hs683 glioma cells; [9]): 27 µM; IC50 [3, 10]: 23 µM; IC50 [5, 11]: 55 µM; IC50 (LoVo colon cancer cells; Homo sapiens, LoVo): 29 µM; IC50 (T98G glioma cells; Homo sapiens, T98G): 28 µM; IC50 [6, 12]: 16 µM; IC50 [7, 13]: 19 µM; IC50 [8, 14]: 41 µM
O=C(OCCOC(=O)c1ccc(O)c(Cl)c1)c1ccc(O)c(Cl)c1 [DLT23, Ethane-1,2-diyl bis-(4-hydroxy-3-chlorobenzoate)] | 34 | 84 | 57 | – | – | 81 | – | – | – | – | – | – | – | – | – | – | – | – | IC50 (U373 glioblastoma cells; Homo sapiens, U373 MG): 52 µM; IC50 (Hs683 glioma cells; [9]): 53 µM; IC50 [3, 10]: 72 µM; IC50 [5, 11]: 53 µM; IC50 (LoVo colon cancer cells; Homo sapiens, LoVo): 48 µM; IC50 (T98G glioma cells; Homo sapiens, T98G): 45 µM; IC50 [6, 12]: 31 µM; IC50 [7, 13]: 73 µM; IC50 [8, 14]: 27 µM
COc1cc(C(=O)OCCCCCOC(=O)c2ccc(O)c(OC)c2)ccc1O [DLT3, Pentane-1,5-diyl bis-(4-hydroxy-3-methoxybenzoate)] | > 100 | > 100 | > 100 | 70 | 90 | > 100 | – | – | – | – | – | – | – | – | – | – | – | – | –
COc1cc(C(=O)O[C@H]2CCCCC[C@@H]2OC(=O)c2ccc(O)c(OC)c2)ccc1O (relative stereo) [DLT22, S,S-trans-cycloheptane-1,2-diyl bis-(4-hydroxy-3-methoxybenzoate)] | – | – | 52 | – | – | – | 54 | 44 | 46 | 88 | 69 | 44 | 24 | 49 | 55 | 51 | 50 | 10 | –
COc1cc(C(=O)O[C@@H]2CC[C@@H](OC(=O)c3ccc(O)c(OC)c3)C2)ccc1O (stereo in doubt) [DLT19, R,R-trans-cyclopentane-1,3-diyl bis-(4-hydroxy-3-methoxybenzoate)] | – | – | 34 | – | – | – | 35 | 30 | 32 | 42 | 25 | 18 | 31 | 34 | 36 | 37 | 53 | 26 | –
O=C(O[C@H]1CCCC[C@@H]1OC(=O)c1cc(O)c(O)c(O)c1)c1cc(O)c(O)c(O)c1 (stereo in doubt) [DLT33, S,S-trans-cyclohexane 1,2-diyl bis-(3,4,5-trihydroxybenzoate)] | – | – | 43 | – | – | – | 35 | 32 | 30 | 44 | 58 | 43 | 38 | 43 | 66 | 38 | 51 | 22 | –
O=C(O[C@@H]1CCCC[C@H]1OC(=O)c1cc(O)c(O)c(O)c1)c1cc(O)c(O)c(O)c1 (stereo in doubt) [DLT34, R,R-trans-cyclohexane 1,2-diyl bis-(3,4,5-trihydroxybenzoate)] | – | – | 41 | – | – | – | 37 | 24 | 32 | 68 | 28 | 34 | 31 | 37 | 45 | 91 | 28 | 0.3 | –
